# Experimental data: the supplement of paper PMC11208160
# Experiment: recombinant UMI read abundance after kanamycin selection (control-corrected) (log10(CPM+1)); higher = more efficient recombination; extreme values may be limits of the assay; sequences stand for … in AGTGCAGAGAAAATCGGCCAGTTTTCTCTGCCTGCAGTCCGCATGCCGTGGGACCCCTTGGGTTCTAACCTGTTGCCTAGATTTATGCAGCGGACTGCCTTTCTCCCAAAGTGATAAACCGG…AGGTTGGTTTCACT; site = the 11-nt donor
# Procedure, shortened: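 The measure is log10(CPM+1) for recombinant UMIs. These were PCR-amplified across the donor–target junction and sequenced after Escherichia coli carrying a donor and donor-binding-loop pair library and a target plasmid with T7-inducible IS621 bridge recombinase was plated on IPTG (0.07 mM) plus kanamycin or unselected. CPM were averaged over two replicates and scaled by control-derived factors.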
# 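Also: IS621 bridge recombinase in Escherichia coli cells against a fixed T5 target plasmid.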
row,Sequence,recombinant UMI read abundance (log10)
1,GGCAATCCATGGACCGGTTTTCCCGGTAATCCGTATTTGCA (site GGCAATCCTTT),0.0136
2,GGCAATTCATGGACCGGTTTTCCCGGTAATCCGTATTTGAA (site GGCAATACTTT),0.0193
3,GGCAATTCATGGACCGGTTTTCCCGGTAATCCGTATTTGAA (site GGCAATCCTTT),0.0153
4,GGCAATTCATGGACCGGTTTTCCCGGTAATCCGTATTTGAA (site GGCAATGCTTT),0.0122
5,GGCAATTCATGGACCGGTTTTCCCGGTAATCCGTATTTGAA (site GGCAATTCTTT),0.996
6,GGCAGAACATGGACCGGTTTTCCCGGTAATCCGTATTTGTG (site GGCAGAACTCA),1.3
7,GGCAGCCCATGGACCGGTTTTCCCGGTAATCCGTATTTGAC (site GGCAGCCCTGT),0
8,GGCAGCGCATGGACCGGTTTTCCCGGTAATCCGTATTTGCT (site GGCAGCGCTAG),2.43
9,GGCAGTCCATGGACCGGTTTTCCCGGTAATCCGTATTTGAA (site GGCAATCCTTT),0.00812
10,GGCAGTCCATGGACCGGTTTTCCCGGTAATCCGTATTTGAA (site GGCACTCCTTT),0.018
11,GGCAGTCCATGGACCGGTTTTCCCGGTAATCCGTATTTGAA (site GGCAGTCCTTT),0.191
12,GGCAGTCCATGGACCGGTTTTCCCGGTAATCCGTATTTGAA (site GGCATTCCTTT),0
13,GGCAGTCCATGGACCGGTTTTCCCGGTAATCCGTATTTGGG (site GGCAGTCCTCC),0.00418
14,GGCAGTGCATGGACCGGTTTTCCCGGTAATCCGTATTTGGA (site GGCAGTGCTTC),0.329
15,GGCATTCCATGGACCGGTTTTCCCGGTAATCCGTATTTGAA (site GGCAATCCTTT),0
16,GGCATTCCATGGACCGGTTTTCCCGGTAATCCGTATTTGAA (site GGCACTCCTTT),0.0138
17,GGCATTCCATGGACCGGTTTTCCCGGTAATCCGTATTTGAA (site GGCAGTCCTTT),0.00406
18,GGCATTCCATGGACCGGTTTTCCCGGTAATCCGTATTTGAA (site GGCATTCCTTT),0.29
19,GGCATTGCATGGACCGGTTTTCCCGGTAATCCGTATTTGGT (site GGCATTGCTAC),1.48
20,GGCATTTCATGGACCGGTTTTCCCGGTAATCCGTATTTGGG (site GGCATTTCTCC),0
21,GGCCAGCCATGGACCGGTTTTCCCGGTAATCCGTATTTGTT (site GGCCAACCTAA),0.00333
22,GGCCAGCCATGGACCGGTTTTCCCGGTAATCCGTATTTGTT (site GGCCACCCTAA),0.0285
23,GGCCAGCCATGGACCGGTTTTCCCGGTAATCCGTATTTGTT (site GGCCAGCCTAA),0.00292
24,GGCCAGCCATGGACCGGTTTTCCCGGTAATCCGTATTTGTT (site GGCCATCCTAA),0
25,GGCCCGACATGGACCGGTTTTCCCGGTAATCCGTATTTGCT (site GGCCCGACTAG),1.49
26,GGCCCTGCATGGACCGGTTTTCCCGGTAATCCGTATTTGTA (site GGCCCTGCTTA),0.378
27,GGCGAACCATGGACCGGTTTTCCCGGTAATCCGTATTTGAA (site GGCGAACCTTT),0
28,GGCGATTCATGGACCGGTTTTCCCGGTAATCCGTATTTGGC (site GGCGATTCTGC),1.57
29,GGCGCAGCATGGACCGGTTTTCCCGGTAATCCGTATTTGGT (site GGCGCAGCTAC),0.482
